Earlier results as cited in patent US20070044813A1, “Use of snuff for treatment of house dust mite allergy and/or cigarette smoke allergy” (priority 2005, published 2007).
Structures can show the parent of a compound that is named as a salt.

System: symptoms of house dust mite allergy and cigarette smoke allergy
Conditions: conventional medicaments; control the symptoms only partly

Row | SMILES | alleviation of the symptoms
1 | Clc1ccc2c(c1)CCc1cccnc1C2=C1CCNCC1 [desloratadine] | around 40%
2 | CC(C)(C(=O)O)c1ccc(C(O)CCCN2CCC(C(O)(c3ccccc3)c3ccccc3)CC2)cc1 (centres unmarked) [fexofenadine hydrochloride] | around 40%
